# Measured values: patent US8192962B2, “Processes for detecting toxic substances” (Daikin Industries, Ltd., priority 2001, dated 2012)
# Tested on: Detoxification protein genes
# Assay: DNA chip mRNA expression in yeast, detoxification protein genes (Table 8)
# Assay type: cell-based, Saccharomyces cerevisiae S288C
# Experimental: Yeast (Saccharomyces cerevisiae S288C (α SUC2mal mel gap2 CUP1)) were incubated at 25° C. on YPD medium (yeast extract 1%, polypepton 2%, glucose 2%). One of toxic chemical substances was added to the cells at logarithmic growth phase, and the cells were further incubated for two hours. Cells were cultured without any chemical substance in the same condition, and were used as control. Concentrations of the chemical substances were defined to inhibit the growth of the yeast but not lead to death.
# After completion of the incubation, the culture was centrifuged to collect the cells. To the cells, sodium acetate buffer (50 mM sodium acetate, 10 mM EDTA, 1% SDS) was added, and the mixture was shaken at 65° C. for five minutes, followed by returning to room temperature, and obtaining the supernatant, of which the procedures were repeated two times. To the supernatant, ½ amount of a solution of phenol/chloroform was added, and the mixture was centrifuged to give a supernatant, which was added with an equal amount of chloroform, and the mixture was centrifuged to give a supernatant. To the supernatant, an equal amount of isopropanol containing 0.3 M sodium acetate was added, and the mixture was allowed to stand at room temperature for 30 minutes, after which the mixture was centrifuged to give a sediment of the whole RNAs. Seventy % ethanol was added to the sediment, and the mixture was again centrifuged to give a sediment, which was then dried and dissolved in water. mRNA was isolated from the whole RNAs as followings. In view of the fact that a poly A chain is attached to the 3′ terminus of mRNA, a polynucleotide having a poly T structure which was immobilized on the surface of latex beads was used to trap the mRNA, and then the mRNA was washed and eluted with spine column (Oligotex-dT30<Super>mRNA Purification Kit, Takara). Reverse transcription of the mRNA was conducted with a reverse transcriptase (Super Script II Reverse Transcriptase; catalogue No. 18064-014, GibcoBRL) using fluorescence-labeled nucleotides to give cDNAs that were introduced with Cy3-dUTP or Cy5-dUTP during the reverse transcription.
# The labeled cDNAs were dissolved in TE buffer (10mM Tris-HCl/1 mM EDTA, pH8.0), and the solution was dropped on the DNA chip containing the whole genes of yeast (DNA Chip Research Inc. Japan) so that the cDNAs were hybridized on the DNA chip at 65° C. for over 12 hours. The fluoresces intensity of the DNA chip was read with a scanner, and the ratio relative to the fluorescence intensity resulting from the absence of chemical substance was estimated as the following, which is shown in Tables 1 to 9: […]
compound,measurement,setting,value
"C[S+](C)[O-] [(15), dimethylsulfoxide]",The level of expressed mRNA in the presence of chemical substance/The level of expressed mRNA in the absence of chemical substance,yeast gene YBL064C,1.3
same,The level of expressed mRNA in the presence of chemical substance/The level of expressed mRNA in the absence of chemical substance,yeast gene YBR008C,0.8
same,The level of expressed mRNA in the presence of chemical substance/The level of expressed mRNA in the absence of chemical substance,yeast gene YBR244W,0.4
same,The level of expressed mRNA in the presence of chemical substance/The level of expressed mRNA in the absence of chemical substance,yeast gene YBR293W,3.1
same,The level of expressed mRNA in the presence of chemical substance/The level of expressed mRNA in the absence of chemical substance,yeast gene YCR083W,1.0
same,The level of expressed mRNA in the presence of chemical substance/The level of expressed mRNA in the absence of chemical substance,yeast gene YDL100C,1.0
same,The level of expressed mRNA in the presence of chemical substance/The level of expressed mRNA in the absence of chemical substance,yeast gene YDR256C,1.0
same,The level of expressed mRNA in the presence of chemical substance/The level of expressed mRNA in the absence of chemical substance,yeast gene YDR453C,2.3
same,The level of expressed mRNA in the presence of chemical substance/The level of expressed mRNA in the absence of chemical substance,yeast gene YDR513W,1.3
same,The level of expressed mRNA in the presence of chemical substance/The level of expressed mRNA in the absence of chemical substance,yeast gene YDR538W,1.0
same,The level of expressed mRNA in the presence of chemical substance/The level of expressed mRNA in the absence of chemical substance,yeast gene YER185W,1.7
same,The level of expressed mRNA in the presence of chemical substance/The level of expressed mRNA in the absence of chemical substance,yeast gene YGL013C,1.0
same,The level of expressed mRNA in the presence of chemical substance/The level of expressed mRNA in the absence of chemical substance,yeast gene YGR088W,0.7
same,The level of expressed mRNA in the presence of chemical substance/The level of expressed mRNA in the absence of chemical substance,yeast gene YGR138C,4.5
same,The level of expressed mRNA in the presence of chemical substance/The level of expressed mRNA in the absence of chemical substance,yeast gene YGR197C,1.0
same,The level of expressed mRNA in the presence of chemical substance/The level of expressed mRNA in the absence of chemical substance,yeast gene YGR209C,1.3
same,The level of expressed mRNA in the presence of chemical substance/The level of expressed mRNA in the absence of chemical substance,yeast gene YHL040C,3.4
same,The level of expressed mRNA in the presence of chemical substance/The level of expressed mRNA in the absence of chemical substance,yeast gene YHR008C,1.7
same,The level of expressed mRNA in the presence of chemical substance/The level of expressed mRNA in the absence of chemical substance,yeast gene YHR048W,0.9
same,The level of expressed mRNA in the presence of chemical substance/The level of expressed mRNA in the absence of chemical substance,yeast gene YHR053C,0.3
same,The level of expressed mRNA in the presence of chemical substance/The level of expressed mRNA in the absence of chemical substance,yeast gene YHR055C,0.5
same,The level of expressed mRNA in the presence of chemical substance/The level of expressed mRNA in the absence of chemical substance,yeast gene YJL101C,0.5
same,The level of expressed mRNA in the presence of chemical substance/The level of expressed mRNA in the absence of chemical substance,yeast gene YJR104C,1.3
same,The level of expressed mRNA in the presence of chemical substance/The level of expressed mRNA in the absence of chemical substance,yeast gene YKL026C,0.8
same,The level of expressed mRNA in the presence of chemical substance/The level of expressed mRNA in the absence of chemical substance,yeast gene YKL064W,0.7
same,The level of expressed mRNA in the presence of chemical substance/The level of expressed mRNA in the absence of chemical substance,yeast gene YKR066C,0.6
same,The level of expressed mRNA in the presence of chemical substance/The level of expressed mRNA in the absence of chemical substance,yeast gene YLL028W,3.1
same,The level of expressed mRNA in the presence of chemical substance/The level of expressed mRNA in the absence of chemical substance,yeast gene YLR043C,0.5
same,The level of expressed mRNA in the presence of chemical substance/The level of expressed mRNA in the absence of chemical substance,yeast gene YLR046C,0.8
same,The level of expressed mRNA in the presence of chemical substance/The level of expressed mRNA in the absence of chemical substance,yeast gene YML116W,1.9
same,The level of expressed mRNA in the presence of chemical substance/The level of expressed mRNA in the absence of chemical substance,yeast gene YMR038C,0.6
same,The level of expressed mRNA in the presence of chemical substance/The level of expressed mRNA in the absence of chemical substance,yeast gene YNL241C,7.0
same,The level of expressed mRNA in the presence of chemical substance/The level of expressed mRNA in the absence of chemical substance,yeast gene YNL259C,0.7
same,The level of expressed mRNA in the presence of chemical substance/The level of expressed mRNA in the absence of chemical substance,yeast gene YOL158C,0.9
same,The level of expressed mRNA in the presence of chemical substance/The level of expressed mRNA in the absence of chemical substance,yeast gene YOR153W,3.6
same,The level of expressed mRNA in the presence of chemical substance/The level of expressed mRNA in the absence of chemical substance,yeast gene YOR251C,0.6
same,The level of expressed mRNA in the presence of chemical substance/The level of expressed mRNA in the absence of chemical substance,yeast gene YOR273C,0.8
same,The level of expressed mRNA in the presence of chemical substance/The level of expressed mRNA in the absence of chemical substance,yeast gene YPR200C,0.7
